Assays:
Type in all cases: ADME, organism-based
[1] = AUC in men plasma at 80 mg by LC/MS/MS analysis; conditions: male, human
[2] = AUC in women plasma at 80 mg by LC/MS/MS analysis; conditions: female, human
[3] = Cmax in men plasma at 80 mg by LC/MS/MS analysis; parameters: dose 80 mg; conditions: male, human
[4] = Cmax in women plasma at 80 mg by LC/MS/MS analysis; parameters: dose 80 mg; conditions: female, human
[5] = Half life in men plasma at 80 mg by LC/MS/MS analysis; conditions: male, human
[6] = Half life in women plasma at 80 mg by LC/MS/MS analysis; conditions: female, human
[7] = Tmax in men plasma at 80 mg by LC/MS/MS analysis; conditions: male, human
[8] = Tmax in women plasma at 80 mg by LC/MS/MS analysis; conditions: female, human
[9] = AUC in human plasma expressing CYP2C8*1/*1 polymorphism at 80 mg by LC/MS/MS analysis
[10] = Cmax in human plasma expressing CYP2C8*1/*1 polymorphism at 80 mg by LC/MS/MS analysis; parameters: dose 80 mg
[11] = Half life in human plasma expressing CYP2C8*1/*1 polymorphism at 80 mg by LC/MS/MS analysis
[12] = Tmax in human plasma expressing CYP2C8*1/*1 polymorphism at 80 mg by LC/MS/MS analysis
[13] = AUC in human plasma expressing CYP2C8*2 allele carrier polymorphism at 80 mg by LC/MS/MS analysis
[14] = Cmax in human plasma expressing CYP2C8*2 allele carrier polymorphism at 80 mg by LC/MS/MS analysis; parameters: dose 80 mg
[15] = Half life in human plasma expressing CYP2C8*2 allele carrier polymorphism at 80 mg by LC/MS/MS analysis
[16] = Tmax in human plasma expressing CYP2C8*2 allele carrier polymorphism at 80 mg by LC/MS/MS analysis
[17] = AUC in human plasma expressing CYP2C8*3 allele carrier polymorphism at 80 mg by LC/MS/MS analysis
[18] = Cmax in human plasma expressing CYP2C8*3 allele carrier polymorphism at 80 mg by LC/MS/MS analysis; parameters: dose 80 mg
[19] = Half life in human plasma expressing CYP2C8*3 allele carrier polymorphism at 80 mg by LC/MS/MS analysis
[20] = Tmax in human plasma expressing CYP2C8*3 allele carrier polymorphism at 80 mg by LC/MS/MS analysis
[21] = AUC in human plasma expressing CYP2C9*1/*1 polymorphism at 80 mg by LC/MS/MS analysis
[22] = Cmax in human plasma expressing CYP2C9*1/*1 polymorphism at 80 mg by LC/MS/MS analysis; parameters: dose 80 mg
[23] = Half life in human plasma expressing CYP2C9*1/*1 polymorphism at 80 mg by LC/MS/MS analysis
[24] = Tmax in human plasma expressing CYP2C9*1/*1 polymorphism at 80 mg by LC/MS/MS analysis
[25] = AUC in human plasma expressing CYP2C9*3 allele carrier polymorphism at 80 mg by LC/MS/MS analysis
[26] = Cmax in human plasma expressing CYP2C9*3 allele carrier polymorphism at 80 mg by LC/MS/MS analysis; parameters: dose 80 mg
[27] = Half life in human plasma expressing CYP2C9*3 allele carrier polymorphism at 80 mg by LC/MS/MS analysis
[28] = Tmax in human plasma expressing CYP2C9*3 allele carrier polymorphism at 80 mg by LC/MS/MS analysis

Which AUC [1] does the source give for `CCCc1nc2c(C)cc(-c3nc4ccccc4n3C)cc2n1Cc1ccc(-c2ccccc2C(=O)O)cc1` here?
Its AUC is 2470 ng·h/mL.

What about the AUC [2] of the same molecule?
The AUC was 3680 ng·h/mL.

What about the Cmax [3] of the same molecule?
The Cmax was 282 ng/mL.

And the Cmax [4]?
The Cmax was 590 ng/mL.

And the half-life [5]?
Its half-life is 1510 min.

And the half-life [6]?
Its half-life is 1990 min.

And the Tmax [7]?
Its Tmax is 1.3 h.

And the Tmax [8]?
The Tmax was 1.4 h.

What about the AUC [9] of the same molecule?
The AUC was 3010 ng·h/mL.

And the Cmax [10]?
Its Cmax is 437 ng/mL.

And the half-life [11]?
The half-life was 1720 min.

What about the Tmax [12] of the same molecule?
Its Tmax is 1.4 h.

And the AUC [13]?
Its AUC is 3680 ng·h/mL.

And the Cmax [14]?
Its Cmax is 498 ng/mL.

What about the half-life [15] of the same molecule?
The half-life was 1750 min.

And the Tmax [16]?
Its Tmax is 1.3 h.

And the AUC [17]?
The AUC was 3230 ng·h/mL.

And the Cmax [18]?
Its Cmax is 494 ng/mL.

And the half-life [19]?
Its half-life is 2030 min.

And the Tmax [20]?
Its Tmax is 1 h.

And the AUC [21]?
The AUC was 3130 ng·h/mL.

What about the Cmax [22] of the same molecule?
Its Cmax is 446 ng/mL.

What about the half-life [23] of the same molecule?
The half-life was 1780 min.

What about the Tmax [24] of the same molecule?
Its Tmax is 1.4 h.

And the AUC [25]?
The AUC was 3400 ng·h/mL.

What about the Cmax [26] of the same molecule?
The Cmax was 510 ng/mL.

What about the half-life [27] of the same molecule?
The half-life was 1810 min.

And the Tmax [28]?
The Tmax was 1.1 h.

— ChEMBL document CHEMBL3526037, “Evaluation of the relationship between sex, polymorphisms in CYP2C8 and CYP2C9, and pharmacokinetics of angiotensin receptor blockers” (Drug Metab Dispos, 2013)
